# In article PMC5688144, “Assay interference and off-target liabilities of reported histone acetyltransferase inhibitors” (Nature Communications, 2017):
# Where two headings read alike, the source gives them in different places.
# How the values were obtained:
# [1] = tested on: H3K27ac levels in HEK293T and MCF7 cells; experiment: Cellular H3K27ac western blot; assay type: cell-based; conditions: 10 and 30 μM compound
# Experimental: Cells were cultured in DMEM supplemented with 10% fetal bovine serum (Winsent), penicillin (100 U mL^−1), and streptomycin (100 µg mL^−1). Compounds dissolved in DMSO or matching DMSO-only controls were added to cells for indicated times. Compound effects in cells were determined as described[67] and are outlined below.
# For western blot analyses, cells were lysed in lysis buffer (20 mM Tris–HCl, pH 8, 150 mM NaCl, 1 mM EDTA, 10 mM MgCl2, 0.5% Triton X-100 (v/v), 12.5 U mL^−1 benzonase (Sigma), complete EDTA-free protease inhibitor cocktail (Roche)). After 3 min incubation at RT, SDS was added to final 1% concentration (w/v). Total cell lysates were resolved in 4–12% Bis-Tris protein gels (Invitrogen) with MOPS buffer (Invitrogen) and transferred for 1.5 h (80 V) onto PVDF membrane (Millipore) in tris-glycine transfer buffer containing 20% methanol and 0.05% SDS. Blots were blocked for 1 h in blocking buffer (5% milk in 0.1% Tween 20/PBS) and incubated with respective primary antibodies: H3K27ac (1:1000, CST #8173), H3 (1:1000, Abcam #10799), p300 (1:2000, Bethyl #A300-358A), CBP (1:1000, Bethyl #A300-362A), actin (1:3000, Abcam #3280), α-tubulin (1:1000, 12G10 DHSB), and α-tubulin-K40ac (1:2000, Abcam #179484) in blocking buffer overnight at 4 °C. After five washes with 0.1% Tween 20/PBS, the blots were incubated with goat anti-rabbit IgG (IRDye 800-conjugated, LiCor #926-32211) and donkey anti-mouse IgG (IRDye 680-conjugated, LiCor #926-68072) antibodies (1:5000) in Odyssey Blocking Buffer (LiCor) for 1 h at RT and washed with 0.1% Tween 20/PBS. The signal was read on an Odyssey scanner (LiCor) at 800 and 700 nm. Representative uncropped images with molecular weight markers are provided (Supplementary Figs. 9, 12, 13).
# p300/CBP = conditions: cited from earlier work; for IC50: original report, 27 (Supplementary References)
# five tested HATs = experiment: HAT selectivity panel with DTT (Reaction Biology); assay type: biochemical; conditions: 10 μM compound; DTT in reaction buffer
# Experimental: Selectivity profiles vs. HATs, HDACs, SIRTs, HMTs, proteases, kinases, and phosphatases were performed by Reaction Biology Corporation (Malvern, PA; Fig. 3 and Supplementary Fig. 3). Percent activity was normalized to DMSO-only controls. Reference control compounds were included in each assay.
# Relevant reaction procedures for each target class are briefly summarized (see reactionbiology.com for additional details). HATs: reaction buffer 50 mM Tris–HCl, pH 8.0, 50 mM NaCl, 0.1 mM EDTA, ± 1 mM DTT, 1 mM PMSF, 1% DMSO; substrate [^3H]-acetyl-CoA; reaction time 1 h; end-point measurement. HDACs: reaction buffer 50 mM Tris–HCl, pH 8.0, 137 mM NaCl, 2.7 mM KCl, 1 mM MgCl2, 1 mg mL^−1 BSA, 1% DMSO; fluorogenic substrate p53 residues 379–382 (RHKK(Ac)-AMC) (HDAC1/2/3/6/10), fluorogenic substrate p53 residues 379–382 (RHK(Ac)K(Ac)AMC) (HDAC8); fluorogenic substrate trifluoroacetyl lysine (HDAC4/5/7/9/11); pre-incubation included; reaction time 1–2 h; trichostatin A or TMP269 quencher; fluorescent readout λexcite = 360 nm, λemission = 460 nm; end-point measurement. SIRTs: reaction buffer 50 mM Tris–HCl, pH 8.0, 137 mM NaCl, 2.7 mM KCl, 1 mM MgCl2, 1 mg mL^−1 BSA, 1% DMSO; fluorogenic substrate p53 residues 379–382 (RHKK(Ac)-AMC) (SIRT1/2/3); fluorogenic substrate Ac-Lys(Succ)-AMC (SIRT5); substrate: 500 µM NAD^+; reaction time 2 h; nicotinamide quencher; fluorescent readout λexcite = 360 nm, λemission = 460 nm; end-point measurement (1.5 h development). HMTs: reaction buffer 50 mM Tris–HCl, pH 8.0, 0.01% Brij35, 1 mM EDTA, 1 mM DTT, 1 mM PMSF, 1% DMSO (EZH2); reaction buffer 50 mM Tris–HCl, pH 7.5, 5 mM EDTA, 0.01% Brij35, 5 mM DTT, 0.1 mM PMSF, 5% glycerol, 1% DMSO; 50 mM Tris–HCl, pH 8.5, 5 mM MgCl2, 50 mM NaCl, 0.01 Brij35, 1 mM DTT, 1% DMSO (G9a); methyl donor 1 μM S-Adenosyl-L-[methyl-^3H]-methionine; substrate 5 μM histone proteins or 0.05 mg mL^−1 nucleosomes; pre-incubation time 10–15 min; reaction time 0.5–1 h; end-point measurement. Caspases: reaction buffer 50 mM HEPES, pH 7.4, 1 M citrate, 100 mM NaCl, 0.01% CHAPS, 0.1 mM EDTA, 10 mM DTT; fluorogenic peptide substrate; pre-incubation time 10 min; reaction time 2 h; time-course measurement. Kinases: reaction buffer 20 mM HEPES, pH 7.5, 10 mM MgCl2, 1 mM EGTA, 0.02% Brij35, 0.02 mg mL^−1 BSA, 0.1 mM Na3VO4, 2 mM DTT, 1% DMSO; substrate [^33P]-ATP; reaction time 2 h; end-point measurement.
# GCN5 = conditions: cited from earlier work
# Tip60 = conditions: cited from earlier work; for IC50: original report, 24 (Supplementary References)
# PCAF = biological target: T1, PCAF (Homo sapiens, UniProt Q92831); conditions: cited from earlier work
# T1 construct: Reaction Biology Corporation (assays run by this contract lab)
# T1 sequence (Q92831 whole entry, species assumed): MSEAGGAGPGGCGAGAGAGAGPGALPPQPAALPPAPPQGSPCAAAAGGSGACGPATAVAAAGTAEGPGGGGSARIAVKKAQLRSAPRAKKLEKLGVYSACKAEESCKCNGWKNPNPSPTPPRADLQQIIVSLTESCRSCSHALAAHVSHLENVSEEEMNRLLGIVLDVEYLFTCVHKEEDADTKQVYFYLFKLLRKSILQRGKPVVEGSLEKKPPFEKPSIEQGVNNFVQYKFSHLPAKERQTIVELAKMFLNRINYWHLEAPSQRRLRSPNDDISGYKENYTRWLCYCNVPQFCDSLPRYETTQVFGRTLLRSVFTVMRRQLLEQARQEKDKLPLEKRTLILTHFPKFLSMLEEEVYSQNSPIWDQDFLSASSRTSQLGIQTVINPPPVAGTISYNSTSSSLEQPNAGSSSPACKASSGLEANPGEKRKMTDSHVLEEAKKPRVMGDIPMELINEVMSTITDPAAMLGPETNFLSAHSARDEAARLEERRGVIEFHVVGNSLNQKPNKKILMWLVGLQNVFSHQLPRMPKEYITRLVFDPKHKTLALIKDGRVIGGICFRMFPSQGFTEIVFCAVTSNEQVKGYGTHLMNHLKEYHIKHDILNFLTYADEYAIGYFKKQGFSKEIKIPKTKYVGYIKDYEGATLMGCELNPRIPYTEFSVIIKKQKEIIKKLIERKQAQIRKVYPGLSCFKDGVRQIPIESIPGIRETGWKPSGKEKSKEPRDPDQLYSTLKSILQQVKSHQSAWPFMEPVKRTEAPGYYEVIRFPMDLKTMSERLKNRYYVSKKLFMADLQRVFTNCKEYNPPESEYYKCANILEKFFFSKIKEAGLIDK
# [2] = @ 100 µM, 20 (Supplementary References)
# [3] = @ 10 µM, ref 5 (Supplementary References)
# [4] = original report, 22 (Supplementary References)
# [5] = original report, 27 (Supplementary References)
# [6] = @ 100 µM, ref 25 (Supplementary References)
# [7] = @ 5 µM, ref 16 (Supplementary References)
# [8] = @ 200 µM, ref 19 (Supplementary References)
# [9] = @ 25 µM, ref 13 (Supplementary References)
molecule,measurement,setting,value
"CCCCCCCCCCCCCCCc1cccc(O)c1C(=O)O [Compound 14, Anacardic acid]",cellular H3K27ac levels,[1],did not perturb
same,IC50,p300/CBP,8.5 µM
"Cc1cc(O)cc(C)c1C=C1C(=O)N(Cc2ccccc2)C(=O)N(Cc2ccccc2)C1=O [Compound 4, EML425]",activity vs. the five tested HATs,five tested HATs,potent inhibition of at least one HAT
same,cellular H3K27ac levels,[1],did not perturb
"COc1ccc(S(=O)(=O)ON=C2C=C(C)C(=O)C(C)=C2)cc1 [Compound 5, L002]",cellular H3K27ac levels,[1],decreased
same,IC50,"GCN5; HotSpot assay, ref 9 (Supplementary References)",33.9 µM
same,"% inhibition, Tip60",Tip60; [2],2%
"Cl.Cl.O=C(O)Cn1nnc(-c2ccc(CN(CCCCOc3ccc(CN4CCCC4)cc3)CCc3ccccc3)cc2)n1 [Compound 20, TH1834]",IC50,Tip60,~500 µM
"O=C(O[C@@H]1Cc2c(O)cc(O)cc2O[C@@H]1c1cc(O)c(O)c(O)c1)c1cc(O)c(O)c(O)c1 [Compound 10, (-)-Epigallocatechin gallate]",IC50,Tip60,70 µM
Plumbagin [Compound 8],"% inhibition, PCAF","PCAF; @ 50 µM, 23 (Supplementary References)",~ 50%
"CC1=NN(c2ccc(C(=O)O)cc2)C(=O)/C1=C/c1ccc(-c2cc(C)c(C)cc2[N+](=O)[O-])o1 [Compound 1, C646]",activity vs. the five tested HATs,five tested HATs,potent inhibition of at least one HAT
same,cellular H3K27ac levels,[1],decreased
same,"% inhibition, GCN5",GCN5; [3],< 10%
same,"% inhibition, PCAF",PCAF; [3],< 10%
"COc1cc(/C=C/C(=O)CC(=O)/C=C/c2ccc(O)c(OC)c2)ccc1O [Compound 11, Curcumin]","% inhibition, PCAF","PCAF; @ 100 µM, ref 15 (Supplementary References)",< 10%
"Clc1ccc(-c2csc(NN=C3CCCC3)n2)cc1 [Compound 7, CPTH2]",IC50,GCN5; [4],~500 µM
"C=C1C(=O)O[C@H](CCC)[C@H]1C(=O)O [Compound 6, MB-3]",IC50,GCN5; [4],100 µM
"Cc1cc2c(C(C)C)c(O)c(O)c(C=O)c2c(O)c1-c1c(C)cc2c(C(C)C)c(O)c(O)c(C=O)c2c1O [Compound 16, Gossypol]",IC50,PCAF; [5],~50 µM
same,"% inhibition, Tip60",Tip60; [2],< 10%
"CCCC1(c2ccccc2)NC(=O)N(CC(=O)N(C)Cc2c(F)cccc2Cl)C1=O (stereo not drawn) [Compound 21, N-[(2-chloro-6-fluorophenyl)methyl]-2-(2,5-dioxo-4-phenyl-4-propylimidazolidin-1-yl)-N-methylacetamide]","% inhibition, p300/CBP",p300/CBP; [6],< 25%
same,"% inhibition, GCN5",GCN5; [6],< 25%
"COc1cc(/C=C/c2cc(/C=C/c3ccc(O)c(OC)c3)n(-c3ccc(C(=O)[O-])cc3)n2)ccc1O.[Na+] [Compound 17, CTK7A]","% inhibition, GCN5","GCN5; @ 40 µM, ref 21 (Supplementary References)",40%
"O=c1c2cccnc2sn1Cc1ccc(C(F)(F)F)cc1 [Compound 3, PU141]",activity vs. the five tested HATs,five tested HATs,minimal activity
same,IC50,"PCAF; H4 peptide substrate, ref 7 (Supplementary References)",35.5 µM
"O=C1/C(=C/c2ccc(O)c(Br)c2)CCC/C1=C\c1ccc(O)c(Br)c1 [Compound 12, HAT inhibitor II]",activity vs. the five tested HATs,five tested HATs,potent inhibition of at least one HAT
same,IC50,p300/CBP,5 µM
same,"% inhibition, GCN5",GCN5; [7],30%
same,"% inhibition, PCAF",PCAF; [7],< 1%
"CCCCCCCc1ccc(CCc2cccc(O)c2C(=O)O)cc1 [Compound 15, MG 149]","% inhibition, p300/CBP",p300/CBP; [8],30%
same,"% inhibition, PCAF",PCAF; [8],3%
same,IC50,Tip60,74 µM
"COc1ccc(/C(Cl)=C(/C=O)c2ccc(OC)cc2)cc1 [Compound 18, Windorphen]",activity vs. the five tested HATs,five tested HATs,minimal activity
same,IC50,GCN5; [4],> 100 µM
same,IC50,PCAF; [5],> 100 µM
Garcinol [Compound 13],activity vs. the five tested HATs,five tested HATs,potent inhibition of at least one HAT
same,IC50,p300/CBP,5 µM
"CCCCCCCCCCCC1=C(O)C(=O)C=C(O)C1=O [Compound 9, Embelin]","% inhibition, p300/CBP",p300/CBP; [9],25%
same,"% inhibition, Tip60",Tip60; [9],25%
